Converted amounts (≈) assume the structure as drawn.

The experiment deals with Mycobacterium tuberculosis. As to the kind of experiment: Antitubercular activity against Mycobacterium tuberculosis H37Rv ATCC 27294 by microplate Alamar blue assay. In kind it is functional. On the technique in general: Resazurin is reduced to fluorescent resorufin, in cell work by metabolically active cells.
As a reminder, the MIC is the smallest concentration in the dilution series that meets the test's criterion for growth inhibition. The compound `CCC(C)C(=O)O[C@@H]1c2c(C)coc2C(=O)[C@@H]2[C@@H](O)CC[C@H](C)[C@@]12C` (some centres not stated) yielded an MIC of 119 µg/mL (≈ 342 µM). Under `C[C@H]1[C@H](C)CC[C@]2(C(=O)O)CC[C@]3(C)C(=CC[C@@H]4[C@@]5(C)CC[C@H](O)C(C)(C)[C@@H]5CC[C@]43C)[C@H]12` [URSOLIC ACID] stands 32 µg/mL (≈ 70.1 µM); under `CC1(C)CC[C@]2(C(=O)O)CC[C@]3(C)C(=CC[C@@H]4[C@@]5(C)CC[C@H](O)C(C)(C)[C@@H]5CC[C@]43C)[C@@H]2C1` [OLEANOLIC_ACID], 64 µg/mL (≈ 140 µM).

In turn, `C/C=C(/C)C(=O)O[C@@H]1c2c(C)coc2C(=O)[C@@H]2[C@@H](O)CC[C@H](C)[C@@]12C` came in with an MIC of 114 µg/mL (≈ 329 µM). As for `CO[C@H]1/C=C/O[C@@]2(C)Oc3c(C)c(O)c4c(O)c(c(/C=N/N5CCN(C)CC5)c(O)c4c3C2=O)NC(=O)/C(C)=C\C=C\[C@H](C)[C@H](O)[C@@H](C)[C@@H](O)[C@@H](C)[C@H](OC(C)=O)[C@@H]1C` [RIFAMPIN], the figure is 0.03 µg/mL (≈ 0.0365 µM); as for `C=C(C)[C@@H]1CC[C@]2(C(=O)O)CC[C@]3(C)[C@H](CC[C@@H]4[C@@]5(C)CC[C@H](O)C(C)(C)[C@@H]5CC[C@]43C)[C@@H]12` [BETULINIC ACID], 32 µg/mL (≈ 70.1 µM); as for `CC(=O)c1ccc(O)cc1` [4-HYDROXYACETOPHENONE], 121 µg/mL (≈ 889 µM).

(Values after ChEMBL document CHEMBL1148221, “Constituents of Senecio chionophilus with potential antitubercular activity” (2004).)
